Among the data in patent publication US10227359B2, “Tricyclic heterocycles as bet protein inhibitors” (Incyte Corporation, priority 2014, dated 2019) are IC50 values, retold here.

The subject of one assay is C-myc in KMS.12.BM cells. Description: KMS.12.BM C-myc ELISA Assay. In kind it is cell-based. The following applies: Homo sapiens, 2 h. How it is done:
KMS.12.BM C-myc ELISA Assay
KMS.12.BM cell line (human myeloma) was purchased from JCRB (Osaka, Japan) and maintained in RPMI with 10% FBS culture medium. To measure the C-myc inhibitory activity of the compounds, the KMS.12.BM cells are plated in the RPMI culture medium at 75000 cells/well/per 200 μL into a 96-well flat bottom polystyrene tissue culture plate (Corning through VWR, NJ), in the presence or absence of a concentration range of test compounds. After 2 h, cells are pelleted and lysed with Cell Extraction Buffer (BioSource, Carlsbad, Calif.) in the presence of protease inhibitors (Life Technologies, Grand Island, N.Y. and Sigma, St Louis, Mo.). Clarified lyses are tested in a C-myc commercial ELISA (Life Technologies, Grand Island, N.Y.). Compound inhibition is determined relative to cells cultured with no drug and the IC50 reported as the compound concentration required for 50% C-myc inhibition.
On the technique in general: An ELISA detects its analyte on a solid surface through an enzyme-linked reagent.

The test system of assay [1] is KMS.12.BM cell line (human myeloma). Put plainly: KMS.12.BM Cell Viability Assay. In kind it is cell-based. The note with it: 72 h, KMS.12.BM cells, 3 days, Cell Titer-GLO, read-out: KMS cellular IC50. How it is done:
Example B1: KMS.12.BM Cell Viability Assay
KMS.12.BM cell line (human myeloma) was purchased from JCRB (Osaka, Japan) and maintained in RPMI with 10% FBS culture medium. To measure the cytotoxic activity of the compounds through ATP quantitation, the KMS.12.BM cells are plated in the RPMI culture medium at 5000 cells/well/per 100 μL into a 96-well polystyrene clear black tissue culture plate (Greiner-bio-one through VWR, NJ), in the presence or absence of a concentration range of test compounds. After 3 days, […] Cell Titer-GLO Luminescent (Promega, Madison, Wis.) cell culture agent is added to each well for 10 min. at room temperature to stabilize the luminescent signal. This determines the number of viable cells in culture based on quantitation of the ATP present, which signals the presence of metabolically active cells. Luminescence is measured with the Top Count 384 (Packard Bioscience through Perkin Elmer, Boston, Mass.). Compound inhibition is determined relative to cells cultured with no drug and the IC50 reported as the compound concentration required for 50% cell death.
(In general: Cellular ATP, detected with luciferase, serves as a proxy for viable cell number.)

A word on the IC50: it is the midpoint of a concentration-inhibition curve. Regarding `CC(=O)N1C[C@@H](C)N(c2nc3ccc(-c4c(C)noc4C)c4c3n2[C@@H](c2ccccn2)CO4)[C@@H](C)C1` (atropisomer, axis not shown) [Example 2, (4S)-2-[(2R,6S)-4-Acetyl-2,6-dimethylpiperazin-1-yl]-7-(3,5-dimethylisoxazol-4-yl)-4-pyridin-2-yl-4,5-dihydroimidazo[1,5,4-de][1,4]benzoxazine], the IC50 (in the assay on C-myc in KMS.12.BM cells; in assay [1]) was at most 100 nM in each case.

In the case of `Cc1noc(C)c1-c1ccc2nc(N3CCN(C(=O)C(C)C)CC3)n3c2c1OC[C@@H]3c1ccccn1` [Example 1, (4S)-7-(3,5-Dimethylisoxazol-4-yl)-2-(4-isobutyrylpiperazin-1-yl)-4-pyridin-2-yl-4,5-dihydroimidazo[1,5,4-de][1,4]benzoxazine], the half-maximal inhibitory concentration (IC50) (in the assay on C-myc in KMS.12.BM cells; in assay [1]) was at most 100 nM in each case.

For the molecule `CC(=O)N1CCN(c2nc3ccc(-c4c(C)noc4C)c4c3n2[C@@H](c2ccccn2)CO4)[C@@H](C)C1` [Example 3, (4S)-2-[(2S)-4-acetyl-2-methylpiperazin-1-yl]-7-(3,5-dimethylisoxazol-4-yl)-4-pyridin-2-yl-4,5-dihydroimidazo[1,5,4-de][1,4]benzoxazine], the IC50 (with C-myc in KMS.12.BM cells; in assay [1]) was at most 100 nM in each case.

As for `CC(=O)N1CC2CC1CN2c1nc2ccc(-c3c(C)noc3C)c3c2n1[C@@H](c1ccccn1)CO3` (stereo partly drawn) [Example 4, (4S)-2-(5-acetyl-2,5-diazabicyclo[2.2.1]hept-2-yl)-7-(3,5-dimethylisoxazol-4-yl)-4-pyridin-2-yl-4,5-dihydroimidazo[1,5,4-de][1,4]benzoxazine], the IC50 (in the assay on C-myc in KMS.12.BM cells; in assay [1]) was at most 100 nM throughout.

For the molecule `CC(=O)NC1(C)CCN(c2nc3ccc(-c4c(C)noc4C)c4c3n2[C@@H](c2ccccn2)CO4)CC1` [Example 5, N-{1-[(4S)-7-(3,5-dimethylisoxazol-4-yl)-4-pyridin-2-yl-4,5-dihydroimidazo[1,5,4-de][1,4]benzoxazin-2-yl]-4-methylpiperidin-4-yl}acetamide], the half-maximal inhibitory concentration (IC50) (in the assay with C-myc in KMS.12.BM cells; in assay [1]) was at most 100 nM throughout.

On to `CC(=O)N(C)C1CCN(c2nc3ccc(-c4c(C)noc4C)c4c3n2[C@@H](c2ccccn2)CO4)CC1` [Example 6, N-{1-[(4S)-7-(3,5-dimethylisoxazol-4-yl)-4-pyridin-2-yl-4,5-dihydroimidazo[1,5,4-de][1,4]benzoxazin-2-yl]piperidin-4-yl}-N-methylacetamide], for which the concentration for half-maximal inhibition (IC50) (in the assay with C-myc in KMS.12.BM cells; in assay [1]) was at most 100 nM throughout.

For the molecule `CC(=O)N1CCN(c2nc3ccc(-c4c(C)noc4C)c4c3n2[C@@H](c2ccccn2)CO4)C[C@@H]1C` [Example 7, (4S)-2-[(3S)-4-acetyl-3-methylpiperazin-1-yl]-7-(3,5-dimethylisoxazol-4-yl)-4-pyridin-2-yl-4,5-dihydroimidazo[1,5,4-de][1,4]benzoxazine], the half-inhibitory concentration (IC50) (in the assay on C-myc in KMS.12.BM cells; in assay [1]) was at most 100 nM throughout.

For `CCC(=O)N1CCN(c2nc3ccc(-c4c(C)noc4C)c4c3n2[C@@H](c2ccccn2)CO4)C[C@@H]1C` [Example 8, (4S)-7-(3,5-dimethylisoxazol-4-yl)-2-[(3S)-3-methyl-4-propionylpiperazin-1-yl]-4-pyridin-2-yl-4,5-dihydroimidazo[1,5,4-de][1,4]benzoxazine], the concentration for half-maximal inhibition (IC50) (with C-myc in KMS.12.BM cells; in assay [1]) was at most 100 nM throughout.

Consider `Cc1noc(C)c1-c1ccc2nc(N3CCN(C(=O)C(C)C)[C@@H](C)C3)n3c2c1OC[C@@H]3c1ccccn1` [Example 9, (4S)-7-(3,5-dimethylisoxazol-4-yl)-2-[(3S)-4-isobutyryl-3-methylpiperazin-1-yl]-4-pyridin-2-yl-4,5-dihydroimidazo[1,5,4-de][1,4]benzoxazine], for which the IC50 (in the assay with C-myc in KMS.12.BM cells; in assay [1]) was at most 100 nM each time.

With `CCCC(=O)NC1CCN(c2nc3ccc(-c4c(C)noc4C)c4c3n2[C@@H](c2ccccn2)CO4)CC1` [Example 10, N-{1-[(4S)-7-(3,5-dimethylisoxazol-4-yl)-4-pyridin-2-yl-4,5-dihydroimidazo[1,5,4-de][1,4]benzoxazin-2-yl]piperidin-4-yl}butanamide], the half-maximal inhibitory concentration (IC50) (in the assay with C-myc in KMS.12.BM cells; in assay [1]) was at most 100 nM in each case.

In the case of `Cc1noc(C)c1-c1ccc2nc(N3CCC(NC(=O)C(C)(C)C)CC3)n3c2c1OC[C@@H]3c1ccccn1` [Example 11, N-{1-[(4S)-7-(3,5-dimethylisoxazol-4-yl)-4-pyridin-2-yl-4,5-dihydroimidazo[1,5,4-de][1,4]benzoxazin-2-yl]piperidin-4-yl}-2,2-dimethylpropanamide], the IC50 (in the assay with C-myc in KMS.12.BM cells; in assay [1]) was at most 100 nM in each case.

For `Cc1noc(C)c1-c1ccc2nc(N3CCC(NC(=O)C4CC4)CC3)n3c2c1OC[C@@H]3c1ccccn1` [Example 12], the 50% inhibitory concentration (IC50) (in the assay with C-myc in KMS.12.BM cells; in assay [1]) was at most 100 nM in each case.

Consider `Cc1noc(C)c1-c1ccc2nc(N3CCC(NC(=O)C4CCC4)CC3)n3c2c1OC[C@@H]3c1ccccn1` [Example 13, N-{1-[(4S)-7-(3,5-dimethylisoxazol-4-yl)-4-pyridin-2-yl-4,5-dihydroimidazo[1,5,4-de][1,4]benzoxazin-2-yl]piperidin-4-yl}cyclobutanecarboxamide], for which the concentration for half-maximal inhibition (IC50) (with C-myc in KMS.12.BM cells; in assay [1]) was at most 100 nM throughout.

Consider `CCS(=O)(=O)NC1CCN(c2nc3ccc(-c4c(C)noc4C)c4c3n2[C@@H](c2ccccn2)CO4)CC1` [Example 14, N-{1-[(4S)-7-(3,5-dimethylisoxazol-4-yl)-4-pyridin-2-yl-4,5-dihydroimidazo[1,5,4-de][1,4]benzoxazin-2-yl]piperidin-4-yl}ethanesulfonamide], for which the IC50 (in the assay on C-myc in KMS.12.BM cells; in assay [1]) was at most 100 nM each time.

For the molecule `CCC(=O)N(C)C1CCN(c2nc3ccc(-c4c(C)noc4C)c4c3n2[C@@H](c2ccccn2)CO4)CC1` [Example 15, N-{1-[(4S)-7-(3,5-dimethylisoxazol-4-yl)-4-pyridin-2-yl-4,5-dihydroimidazo[1,5,4-de][1,4]benzoxazin-2-yl]piperidin-4-yl}-N-methylpropanamide], the 50% inhibitory concentration (IC50) (in the assay on C-myc in KMS.12.BM cells; in assay [1]) was at most 100 nM throughout.

Take `CCCC(=O)N(C)C1CCN(c2nc3ccc(-c4c(C)noc4C)c4c3n2[C@@H](c2ccccn2)CO4)CC1` [Example 16, N-{1-[(4S)-7-(3,5-dimethylisoxazol-4-yl)-4-pyridin-2-yl-4,5-dihydroimidazo[1,5,4-de][1,4]benzoxazin-2-yl]piperidin-4-yl}-N-methylbutanamide]: the concentration for half-maximal inhibition (IC50) (with C-myc in KMS.12.BM cells; in assay [1]) was at most 100 nM each time.

Take `Cc1noc(C)c1-c1ccc2nc(N3CCC(N(C)C(=O)C(C)C)CC3)n3c2c1OC[C@@H]3c1ccccn1` [Example 17, N-{1-[(4S)-7-(3,5-dimethylisoxazol-4-yl)-4-pyridin-2-yl-4,5-dihydroimidazo[1,5,4-de][1,4]benzoxazin-2-yl]piperidin-4-yl}-N,2-dimethylpropanamide]: the IC50 (with C-myc in KMS.12.BM cells; in assay [1]) was at most 100 nM each time.

Consider `Cc1noc(C)c1-c1ccc2nc(N3CCC(N(C)C(=O)C(C)(C)C)CC3)n3c2c1OC[C@@H]3c1ccccn1` [Example 18, N-{1-[(4S)-7-(3,5-dimethylisoxazol-4-yl)-4-pyridin-2-yl-4,5-dihydroimidazo[1,5,4-de][1,4]benzoxazin-2-yl]piperidin-4-yl}-N,2,2-trimethylpropanamide], for which the IC50 (in the assay on C-myc in KMS.12.BM cells; in assay [1]) was at most 100 nM throughout.

Consider `Cc1noc(C)c1-c1ccc2nc(N3CCC(N(C)C(=O)C4CC4)CC3)n3c2c1OC[C@@H]3c1ccccn1` [Example 19, N-{1-[(4S)-7-(3,5-dimelhylisoxazol-4-yl)-4-pyridin-2-yl-4,5-dihydroimidazo[1,5,4-de][1,4]benzoxazin-2-yl]piperidin-4-yl}-N-methylcyclopropanecarboxamide], for which the IC50 (in the assay with C-myc in KMS.12.BM cells; in assay [1]) was at most 100 nM each time.

Turning to `Cc1noc(C)c1-c1ccc2nc(N3CCC(N(C)C(=O)C4CCC4)CC3)n3c2c1OC[C@@H]3c1ccccn1` [Example 20, N-{1-[(4S)-7-(3,5-dimethylisoxazol-4-yl)-4-pyridin-2-yl-4,5-dihydroimidazo[1,5,4-de][1,4]benzoxazin-2-yl]piperidin-4-yl}-N-methylcyclobutanecarboxamide], the IC50 in the assay on C-myc in KMS.12.BM cells is 100 to 1000 nM; in assay [1] it was at most 100 nM.

On to `Cc1noc(C)c1-c1ccc2nc(N3CCC(N(C)C(=O)N(C)C)CC3)n3c2c1OC[C@@H]3c1ccccn1` [Example 21, N-{1-[(4S)-7-(3,5-dimethylisoxazol-4-yl)-4-pyridin-2-yl-4,5-dihydroimidazo[1,5,4-de][1,4]benzoxazin-2-yl]piperidin-4-yl}-N,N′,N′-trimethylurea], for which the IC50 (in the assay on C-myc in KMS.12.BM cells; in assay [1]) was at most 100 nM throughout.
